From the supplement of paper PMC10307832

Columns and labels:
Assay in all cases: relative viability (nuclei count vs DMSO), 5 days (fraction); higher = more cells survive
[1] = compound: CC(O)(CS(=O)(=O)c1ccc(F)cc1)C(=O)Nc1ccc(C#N)c(C(F)(F)F)c1 [Bicalutamide] + CCNC(=O)c1noc(-c2cc(C(C)C)c(O)cc2O)c1-c1ccc(CN2CCOCC2)cc1 [Luminespib] (partner 0.01 µM)
How it was run: (§1)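 Relative viability was taken as the ratio of nuclei in treated wells to nuclei in vehicle wells. Lung cancer cell lines in 1536-well plates received compounds by pin tool one day after seeding, either one drug alone or a fixed anchor-drug dose plus five library-drug doses (not always all listed) in √10 steps. Nuclei were counted on 4× images after 5 days of treatment, and values are medians of duplicate plates.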

[2] = compound: CC(O)(CS(=O)(=O)c1ccc(F)cc1)C(=O)Nc1ccc(C#N)c(C(F)(F)F)c1 [Bicalutamide] + CC(=O)c1c(C)c2cnc(Nc3ccc(N4CCNCC4)cn3)nc2n(C2CCCC2)c1=O [Palbociclib] (partner 0.5 µM)
How it was run: as §1

[3] = compound: C(C(=O)C(=O)O)Br [Bromopyruvate] + N=C(N)NC(=N)NCCc1ccccc1 [Phenformin] (partner 250 µM)
How it was run: as §1

Bicalutamide + OSI-027 = compound: CC(O)(CS(=O)(=O)c1ccc(F)cc1)C(=O)Nc1ccc(C#N)c(C(F)(F)F)c1 [Bicalutamide] + COc1cccc2cc(-c3nc([C@H]4CC[C@H](C(=O)O)CC4)n4ncnc(N)c34)[nH]c12 [OSI-027] (partner 0.5 µM)
How it was run: as §1

Q: Which relative viability ([1]; first compound 0.08 µM) does the source give for UMC-11 here?
A: The relative viability was 1.07.

Q: And the relative viability ([1]; first compound 0.253 µM)?
A: Its relative viability is 1.03.

Q: What about the relative viability ([1]; first compound 0.8 µM) of the same cell line?
A: The relative viability was 1.14.

Q: What about the relative viability ([1]; first compound 2.53 µM) of the same cell line?
A: Its relative viability is 0.949.

Q: And the relative viability ([2]; first compound 0.08 µM)?
A: Its relative viability is 0.34.

Q: And the relative viability ([2]; first compound 0.253 µM)?
A: The relative viability was 0.367.

Q: What about the relative viability ([2]; first compound 0.8 µM) of the same cell line?
A: Its relative viability is 0.319.

Q: And the relative viability ([2]; first compound 2.53 µM)?
A: The relative viability was 0.347.

Q: And the relative viability ([3]; first compound 1 µM)?
A: The relative viability was 0.343.

Q: And the relative viability ([3]; first compound 3.162 µM)?
A: The relative viability was 0.328.

Q: What about the relative viability ([3]; first compound 10 µM) of the same cell line?
A: The relative viability was 0.314.

Q: And the relative viability ([3]; first compound 31.62 µM)?
A: Its relative viability is 0.329.

Q: And the relative viability ([3]; first compound 100 µM)?
A: Its relative viability is 0.292.

Q: And the relative viability (Bicalutamide + OSI-027; first compound 0.08 µM)?
A: The relative viability was 0.505.

Q: What about the relative viability (Bicalutamide + OSI-027; first compound 0.253 µM) of the same cell line?
A: Its relative viability is 0.461.

Q: What about the relative viability (Bicalutamide + OSI-027; first compound 0.8 µM) of the same cell line?
A: The relative viability was 0.591.

Q: And the relative viability (Bicalutamide + OSI-027; first compound 2.53 µM)?
A: The relative viability was 0.395.
